Source: article PMC11148772, “Inhibition of protein translational machinery in triple-negative breast cancer as a promising therapeutic strategy” (Cell Reports Medicine, 2024)
Residues, ends and D or L forms follow the SMILES beside them. *: point of attachment. Cbz = O=C(OCc1ccccc1)*

Key:
[1] = target: T1, YB-1 (Homo sapiens, UniProt P67809); assay: Pulldown assay with biotinylated SU056, MDA-MB-231; format: binding; parameters: endogenous in cells; host or cells: MDA-MB-231; conditions: 2 μM, 2 h
Method: (§1) Protein pulldown assay was performed using biotinylated SU056. MDA-MB-231 and MDA-MB-468 cells were treated with 2 μM biotinylated SU056 for 2 h. After 2 h of treatment, cells were collected and lysed using M-PER lysis solution (Thermo Scientific, #78503), supplemented with Halt protease and phosphatase inhibitor cocktail (Thermo Scientific, #78440). Protein lysate from Biotinylated SU056 treated cells were treated with RNase (10 μg/mL) for 15 min at 37°C. 600 μg protein was incubated with magnetic conjugate streptavidin bead (CST, #5947) at room temperature on rocker for 30 min. Biotin-streptavidin conjugates were pulled down and washed using a magnetic rack. After three washes, beads were resuspended in 2X SDS sample buffer followed by heating at 90°C–100°C for 5 min. Samples were resolved and probed with anti-YB-1 and anti-RPL11 antibodies as described in immunoblotting. Samples of protein lysates from MDA-MB-231 and MDA-MB-468 without biotinylated SU056 (input), samples from pulldown using only biotin and only streptavidin beads were used as experimental controls.

[2] = target: T1, YB-1; assay: Pulldown assay with biotinylated SU056, MDA-MB-468; format: binding; parameters: endogenous in cells; conditions: 2 μM, 2 h
Method: as §1

[3] = test system: TNBC cells (MDA-MB-231, MDA-MB-468, SUM159); assay: Immunoblot assay of cell lysates; format: cell-based, human; conditions: MG132 10 μM + SU056 1 μM, 15 h, MDA-MB-231 and MDA-MB-468

SMILES	interaction with YB-1 (pull-down) [1]	increase of interaction with YB-1 in RNase-treated protein lysates ([1]; RNase 10 μg/mL)	interaction with YB-1 (pull-down) [2]	increase of interaction with YB-1 in RNase-treated protein lysates ([2]; RNase 10 μg/mL)	effect on SU056-induced decrease in levels of YB-1 and RPL11 [3]
O=C(CCCC[C@@H]1SC[C@@H]2NC(=O)N[C@@H]21)NCCSSCCC(=O)OCCN1C2=C(C(=O)OC2)C(c2cccc(F)c2)c2cc3c(cc21)OCO3 (stereo partly drawn) [biotinylated SU056, 2-(9-(3-fluorophenyl)-8-oxo-6,9-dihydro-[1,3]dioxolo[4,5-g]furo[3,4-b]quinolin-5(8H)-yl)ethyl 3-((2-(5-((3aS,4S,6aR)-2-oxohexahydro-1H-thieno[3,4-day]imidazol-4-yl)pentanamido)ethyl)disulfaneyl)propanoate]	physically interacts	3.13 fold	physically interacts	18.76 fold	–
CC(C)C[C@@H](C=O)NC(=O)[C@H](CC(C)C)NC(=O)[C@H](CC(C)C)NC(=O)OCc1ccccc1 [MG132, reference compound] (Cbz-Leu-Leu-Leu-aldehyde)	–	–	–	–	partially reversed
